Laboratory results: publication PMC5587909, “Inhibition of the ATP Synthase Eliminates the Intrinsic Resistance of Staphylococcus aureus towards Polymyxins” (mBio, 2017)
≈ marks a conversion by molar mass, not a printed value. Bridge positions count the residues as written; N and C are the ends. Square brackets hold non-standard residues; d marks the D form. Peptide text beside a SMILES is read from it. * marks the point of attachment. X1 = CC[C@H](C)CCCCC(=O)*; Dab = NCC[C@H](N)C(=O)O

Assays:
[1] = tested on: S. aureus JE2 (wild type); assay: microbe, parasite or virus in culture; details: Etest on TSA, 37°C, 22 h; wild type S. aureus JE2
Text: (§1) Staphylococcus aureus is intrinsically resistant to the clinically approved cationic antimicrobial peptides polymyxin B (PMB) and colistin ([1], [16]). […] The MIC for PMB was subsequently determined using Etests for the identified mutants.
(§2) The strains used in this study include S. aureus strain JE2 (plasmid-cured derivative of USA300 LAC) and all derivative strains within the Nebraska Transposon Mutant Library (NTML), consisting of 1,920 unique transposon mutants with inactivation of nonessential genes ([15]). The bursa aurealis transposon used to create the collection contains the resistance cassette ermB, which confers resistance to erythromycin ([15]). Additionally we used S. aureus SA113 and two derivatives, SA113 ΔdltA ([9]) and SA113 ΔmprF ([10]). All bacterial strains were cultured at 37°C in tryptic soy broth (TSB) or on tryptic soy agar (TSA), with antimicrobial agents added as indicated. Two methods have been employed to determine MICs to various antimicrobial agents. (i) A 2-fold broth microdilution assay in TSB (100 µl) with an initial inoculum of approximately 5 × 10^5 cells/ml was employed to determine the MICs of polymyxin B sulfate (Sigma), gallidermin (Santa Cruz Biotechnology), nisin (Sigma), bacitracin (Sigma), and LL-37 (Isca Biochemicals). […] The MIC was determined upon incubation at 37°C for 22 h. […]

[2] = tested on: S. aureus JE2 atpA transposon mutant (SAUSA300_2060); assay: microbe, parasite or virus in culture; details: Etest on TSA
Text: as §1, §2

[3] = tested on: S. aureus JE2 graR transposon mutant (SAUSA300_0645); assay: microbe, parasite or virus in culture; details: Etest on TSA
Text: as §1, §2

[4] = tested on: S. aureus JE2 vraF transposon mutant (SAUSA300_0647); assay: microbe, parasite or virus in culture; details: Etest on TSA
Text: as §1, §2

[5] = tested on: S. aureus JE2 vraG transposon mutant (SAUSA300_0648); assay: microbe, parasite or virus in culture; details: Etest on TSA
Text: as §1, §2

S. aureus JE2 (WT) = format: cell-based, Staphylococcus aureus; details: Etest on cation-adjusted Mueller-Hinton agar, 37°C, 22 h
Experimental: (§3) It has been reported that growth medium composition can affect polymyxin MIC ([23]): therefore, we also tested polymyxin B MICs of the WT and atpA, graR, vraG, and vraF mutants by employing the Etest on cation-adjusted Mueller-Hinton (MH) agar. […] Polymyxin B breakpoints for Pseudomonas aeruginosa are susceptible at a MIC of ≤2 μg/ml, intermediate at a MIC of 4 μg/ml, and resistant at a MIC of ≥8 μg/ml, whereas for Acinetobacter spp., a MIC of ≥4 μg/ml is considered resistant.
(§4) The strains used in this study include S. aureus strain JE2 (plasmid-cured derivative of USA300 LAC) and all derivative strains within the Nebraska Transposon Mutant Library (NTML), consisting of 1,920 unique transposon mutants with inactivation of nonessential genes ([15]). The bursa aurealis transposon used to create the collection contains the resistance cassette ermB, which confers resistance to erythromycin ([15]). Additionally we used S. aureus SA113 and two derivatives, SA113 ΔdltA ([9]) and SA113 ΔmprF ([10]). All bacterial strains were cultured at 37°C in tryptic soy broth (TSB) or on tryptic soy agar (TSA), with antimicrobial agents added as indicated. Two methods have been employed to determine MICs to various antimicrobial agents. (i) A 2-fold broth microdilution assay in TSB (100 µl) with an initial inoculum of approximately 5 × 10^5 cells/ml was employed to determine the MICs of polymyxin B sulfate (Sigma), gallidermin (Santa Cruz Biotechnology), nisin (Sigma), bacitracin (Sigma), and LL-37 (Isca Biochemicals). (ii) An Etest (BioMérieux) performed on TSA plates was employed to determine MICs for polymyxin B, colistin, ciprofloxacin, oxacillin, linezolid, gentamicin, vancomycin, and daptomycin. The MIC was determined upon incubation at 37°C for 22 h. When indicated, the Etest (BioMérieux) was performed on Mueller-Hinton agar plates (cation adjusted for calcium and magnesium).

[6] = tested on: S. aureus JE2 atpA mutant; format: cell-based, Staphylococcus aureus; details: Etest on cation-adjusted Mueller-Hinton agar, 37°C, 22 h
Experimental: as §3, §4

[7] = tested on: S. aureus JE2 graR mutant; format: cell-based, Staphylococcus aureus; details: Etest on cation-adjusted Mueller-Hinton agar, 37°C, 22 h
Experimental: as §3, §4

[8] = tested on: S. aureus JE2 vraF mutant; format: cell-based, Staphylococcus aureus; details: Etest on cation-adjusted Mueller-Hinton agar, 37°C, 22 h
Experimental: as §3, §4

[9] = tested on: S. aureus JE2 vraG mutant; format: cell-based, Staphylococcus aureus; details: Etest on cation-adjusted Mueller-Hinton agar, 37°C, 22 h
Experimental: as §3, §4

[10] = tested on: S. aureus SA113 (wild type); format: cell-based, Staphylococcus aureus; details: MIC method not given, 37°C, 22 h
Text: (§5) Lysinylation of phosphatidylglycerols therefore seems to mediate selective protection against certain cationic antimicrobial peptides.
as §4, with “The MIC was determined upon incubation at 37°C for 22 h. When indicated, the Etest (BioMérieux) was performed on Mueller-Hinton agar plates (cation adjusted for calcium and magnesium).” left out

[11] = tested on: S. aureus SA113 ΔmprF mutant; format: cell-based, Staphylococcus aureus; details: MIC method not given, 37°C, 22 h
Text: as §5
as §4, with “The MIC was determined upon incubation at 37°C for 22 h. When indicated, the Etest (BioMérieux) was performed on Mueller-Hinton agar plates (cation adjusted for calcium and magnesium).” left out

[12] = tested on: S. aureus SA113 ΔdltA mutant; format: cell-based, Staphylococcus aureus; details: MIC method not given, 37°C, 22 h
Text: as §4

With `CC[C@H](C)CCCCC(=O)N[C@@H](CCN)C(=O)N[C@H](C(=O)N[C@@H](CCN)C(=O)N[C@H]1CCNC(=O)[C@H]([C@@H](C)O)NC(=O)[C@H](CCN)NC(=O)[C@H](CCN)NC(=O)[C@H](CC(C)C)NC(=O)[C@@H](Cc2ccccc2)NC(=O)[C@H](CCN)NC1=O)[C@@H](C)O` [Polymyxin B, polymyxin B] (X1-[Dab]T[Dab][Dab][Dab][dF]L[Dab][Dab]T; lactam 4-C (inferred); N-terminus assumed) the MIC [1] was 128 µg/mL (≈ 106 µM), the MIC ([2]; 37°C, 22 h, atpA mutant) was 16 µg/mL (≈ 13.3 µM) and the “fold reduction in MIC / increased sensitivity relative to WT” value ([2]; atpA mutant vs WT JE2) was 8 fold. For the same molecule, the MIC ([3]; 37°C, 22 h, graR mutant) was 16 µg/mL (≈ 13.3 µM), the “fold reduction in MIC / increased sensitivity relative to WT” value ([3]; graR mutant vs WT JE2) was 8 fold and the MIC ([4]; 37°C, 22 h, vraF mutant) was 16 µg/mL (≈ 13.3 µM). For the same molecule, the “fold reduction in MIC / increased sensitivity relative to WT” value ([4]; vraF mutant vs WT JE2) was 8 fold, the MIC ([5]; 37°C, 22 h, vraG mutant) was 16 µg/mL (≈ 13.3 µM) and the “fold reduction in MIC / increased sensitivity relative to WT” value ([5]; vraG mutant vs WT JE2) was 8 fold. The MIC (S. aureus JE2 (WT)) was 8 to 16 µg/mL, the MIC [6] was 2 to 4 µg/mL and the MIC [7] was 1 to 2 µg/mL. It also gave an MIC [8] of 1.5 to 2 µg/mL, an MIC [9] of 1.5 to 2 µg/mL and an MIC [10] of 512 µg/mL (≈ 425 µM). For the same molecule, the MIC [11] was 384 µg/mL (≈ 319 µM) and the MIC [12] was 48 µg/mL (≈ 39.9 µM).
